pIC50: −log10 of the molar value.
Legend:
DLD-1 = experiment: Cytotoxicity against human DLD-1 cells assessed as inhibition of cell growth measured after 48 hrs by Hoechst 33258 staining based fluorescence assay; format: functional; conditions: DLD-1, 48 h
[1] = Cytotoxicity against human WS1 cells assessed as inhibition of cell growth measured after 48 hrs by Hoechst 33258 staining based fluorescence assay; format: toxicity
A549 = experiment: Cytotoxicity against human A549 cells assessed as inhibition of cell growth measured after 48 hrs by Hoechst 33258 staining based fluorescence assay; format: functional; conditions: A549, 48 h

SMILES	pIC50 (DLD-1)	IC50 at 48 h [1] [µM]	pIC50 (A549)
C[C@H]1[C@H](C)CC[C@]2(CO[C@@H]3OC[C@@H](O)[C@@H](O)[C@@H]3O)CC[C@]3(C)C(=CC[C@@H]4[C@@]5(C)CC[C@H](O[C@H]6OC[C@@H](O)[C@@H](O)[C@@H]6O)C(C)(C)[C@@H]5CC[C@]43C)[C@H]12	4.80	20	5.00
C[C@H]1[C@H](C)CC[C@]2(C(=O)O)CC[C@]3(C)C(=CC[C@@H]4[C@@]5(C)CC[C@H](O[C@H]6O[C@@H](C)[C@@H](O)[C@@H](O)[C@@H]6O)C(C)(C)[C@@H]5CC[C@]43C)[C@H]12	4.82	7.2	5.43
C[C@H]1[C@H](C)CC[C@]2(C(=O)O)CC[C@]3(C)C(=CC[C@@H]4[C@@]5(C)CC[C@H](O[C@H]6O[C@H](C)[C@@H](O)[C@H](O)[C@@H]6O)C(C)(C)[C@@H]5CC[C@]43C)[C@H]12	4.21	77	4.19
C[C@H]1[C@H](C)CC[C@]2(CO[C@@H]3O[C@H](C)[C@H](O)[C@H](O)[C@H]3O)CC[C@]3(C)C(=CC[C@@H]4[C@@]5(C)CC[C@H](O[C@@H]6O[C@H](C)[C@H](O)[C@H](O)[C@H]6O)C(C)(C)[C@@H]5CC[C@]43C)[C@H]12	4.92	16	5.05
C[C@H]1[C@H](C)CC[C@]2(CO[C@H]3OC[C@@H](O)[C@H](O)[C@H]3O)CC[C@]3(C)C(=CC[C@@H]4[C@@]5(C)CC[C@H](O[C@@H]6OC[C@@H](O)[C@H](O)[C@H]6O)C(C)(C)[C@@H]5CC[C@]43C)[C@H]12	4.83	20	4.82
C[C@H]1[C@H](C)CC[C@]2(C(=O)O)CC[C@]3(C)C(=CC[C@@H]4[C@@]5(C)CC[C@H](O[C@@H]6OC[C@H](O)[C@H](O)[C@H]6O)C(C)(C)[C@@H]5CC[C@]43C)[C@H]12	5.42	5.9	5.46
C[C@H]1[C@H](C)CC[C@]2(CO[C@H]3OC[C@H](O)[C@@H](O)[C@H]3O)CC[C@]3(C)C(=CC[C@@H]4[C@@]5(C)CC[C@H](O[C@@H]6OC[C@H](O)[C@@H](O)[C@H]6O)C(C)(C)[C@@H]5CC[C@]43C)[C@H]12	4.24	60	4.82
C[C@H]1[C@H](C)CC[C@]2(C(=O)O)CC[C@]3(C)C(=CC[C@@H]4[C@@]5(C)CC[C@H](O[C@@H]6OC[C@@H](O)[C@H](O)[C@H]6O)C(C)(C)[C@@H]5CC[C@]43C)[C@H]12	5.15	9	5.13
C[C@H]1[C@H](C)CC[C@]2(C(=O)O)CC[C@]3(C)C(=CC[C@@H]4[C@@]5(C)CC[C@H](O[C@H]6OC[C@@H](O)[C@H](O)[C@@H]6O)C(C)(C)[C@@H]5CC[C@]43C)[C@H]12	5.19	4.6	5.05
C[C@H]1[C@H](C)CC[C@]2(CO[C@@H]3O[C@@H](C)[C@H](O)[C@@H](O)[C@H]3O)CC[C@]3(C)C(=CC[C@@H]4[C@@]5(C)CC[C@H](O[C@@H]6O[C@@H](C)[C@H](O)[C@@H](O)[C@H]6O)C(C)(C)[C@@H]5CC[C@]43C)[C@H]12	4.96	14	5.35
C[C@H]1[C@H](C)CC[C@]2(CO[C@H]3O[C@H](C)[C@@H](O)[C@H](O)[C@@H]3O)CC[C@]3(C)C(=CC[C@@H]4[C@@]5(C)CC[C@H](O[C@H]6O[C@H](C)[C@@H](O)[C@H](O)[C@@H]6O)C(C)(C)[C@@H]5CC[C@]43C)[C@H]12	3.96	> 200	3.98
C[C@H]1[C@H](C)CC[C@]2(CO)CC[C@]3(C)C(=CC[C@@H]4[C@@]5(C)CC[C@H](O)C(C)(C)[C@@H]5CC[C@]43C)[C@H]12 [UVAOL]	< 3.70	> 200	< 3.70
C[C@H]1[C@H](C)CC[C@]2(C(=O)O)CC[C@]3(C)C(=CC[C@@H]4[C@@]5(C)CC[C@H](O[C@H]6OC[C@@H](O)[C@@H](O)[C@@H]6O)C(C)(C)[C@@H]5CC[C@]43C)[C@H]12	5.10	10	5.05
C=C(C)[C@@H]1CC[C@]2(CO[C@@H]3O[C@@H](C)[C@H](O)[C@@H](O)[C@H]3O)CC[C@]3(C)[C@H](CC[C@@H]4[C@@]5(C)CC[C@H](O[C@@H]6O[C@@H](C)[C@H](O)[C@@H](O)[C@H]6O)C(C)(C)[C@@H]5CC[C@]43C)[C@@H]12		1.42	5.97
C[C@H]1[C@H](C)CC[C@]2(C(=O)O)CC[C@]3(C)C(=CC[C@@H]4[C@@]5(C)CC[C@H](O[C@@H]6OC[C@H](O)[C@@H](O)[C@H]6O)C(C)(C)[C@@H]5CC[C@]43C)[C@H]12	4.54	20	4.41
C[C@H]1[C@H](C)CC[C@]2(CO[C@H]3O[C@@H](C)[C@@H](O)[C@@H](O)[C@@H]3O)CC[C@]3(C)C(=CC[C@@H]4[C@@]5(C)CC[C@H](O[C@H]6O[C@@H](C)[C@@H](O)[C@@H](O)[C@@H]6O)C(C)(C)[C@@H]5CC[C@]43C)[C@H]12	4.32	62	3.98
C[C@H]1[C@H](C)CC[C@]2(C(=O)O)CC[C@]3(C)C(=CC[C@@H]4[C@@]5(C)CC[C@H](O[C@H]6OC[C@H](O)[C@@H](O)[C@@H]6O)C(C)(C)[C@@H]5CC[C@]43C)[C@H]12	4.44	30	4.46
C[C@H]1[C@H](C)CC[C@]2(CO[C@@H]3OC[C@H](O)[C@@H](O)[C@@H]3O)CC[C@]3(C)C(=CC[C@@H]4[C@@]5(C)CC[C@H](O[C@H]6OC[C@H](O)[C@@H](O)[C@@H]6O)C(C)(C)[C@@H]5CC[C@]43C)[C@H]12	< 3.70	> 200	5.01
C[C@H]1[C@H](C)CC[C@]2(C(=O)O)CC[C@]3(C)C(=CC[C@@H]4[C@@]5(C)CC[C@H](O[C@@H]6O[C@@H](C)[C@H](O)[C@@H](O)[C@H]6O)C(C)(C)[C@@H]5CC[C@]43C)[C@H]12	4.96	8.5	4.85
COc1cc([C@@H]2c3cc4c(cc3[C@@H](O[C@@H]3O[C@@H]5CO[C@@H](C)O[C@H]5[C@H](O)[C@H]3O)[C@H]3COC(=O)[C@H]23)OCO4)cc(OC)c1O [ETOPOSIDE]	5.29	> 50	5.72
C[C@H]1[C@H](C)CC[C@]2(CO[C@@H]3OC[C@@H](O)[C@H](O)[C@@H]3O)CC[C@]3(C)C(=CC[C@@H]4[C@@]5(C)CC[C@H](O[C@H]6OC[C@@H](O)[C@H](O)[C@@H]6O)C(C)(C)[C@@H]5CC[C@]43C)[C@H]12	4.42	10	4.47
C[C@H]1[C@H](C)CC[C@]2(C(=O)O)CC[C@]3(C)C(=CC[C@@H]4[C@@]5(C)CC[C@H](O)C(C)(C)[C@@H]5CC[C@]43C)[C@H]12 [URSOLIC ACID]	4.80	13.1	4.80
C[C@H]1[C@H](C)CC[C@]2(C(=O)O)CC[C@]3(C)C(=CC[C@@H]4[C@@]5(C)CC[C@H](O[C@@H]6O[C@H](C)[C@H](O)[C@H](O)[C@H]6O)C(C)(C)[C@@H]5CC[C@]43C)[C@H]12	4.82	13.1	5.15
C[C@H]1[C@H](C)CC[C@]2(CO[C@H]3OC[C@H](O)[C@H](O)[C@H]3O)CC[C@]3(C)C(=CC[C@@H]4[C@@]5(C)CC[C@H](O[C@@H]6OC[C@H](O)[C@H](O)[C@H]6O)C(C)(C)[C@@H]5CC[C@]43C)[C@H]12	4.51	37	5.05
